This is an account of results in ChEMBL document CHEMBL1201862, “PubChem BioAssay data set” (2004).

Several values for one entry are separate records, joined by “and”; a condition that tells them apart may be missing. Identical values can stand only once. Counter-ions that a name gives are not always drawn. Activity calls are given as the source filed them.

One test concerns the target T1, Cytochrome P450 1A2 (Homo sapiens, UniProt P05177).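 Also: PubChem cytochrome P450 panel assay, CYP1A2 panel member.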
T1 sequence (P05177 whole entry): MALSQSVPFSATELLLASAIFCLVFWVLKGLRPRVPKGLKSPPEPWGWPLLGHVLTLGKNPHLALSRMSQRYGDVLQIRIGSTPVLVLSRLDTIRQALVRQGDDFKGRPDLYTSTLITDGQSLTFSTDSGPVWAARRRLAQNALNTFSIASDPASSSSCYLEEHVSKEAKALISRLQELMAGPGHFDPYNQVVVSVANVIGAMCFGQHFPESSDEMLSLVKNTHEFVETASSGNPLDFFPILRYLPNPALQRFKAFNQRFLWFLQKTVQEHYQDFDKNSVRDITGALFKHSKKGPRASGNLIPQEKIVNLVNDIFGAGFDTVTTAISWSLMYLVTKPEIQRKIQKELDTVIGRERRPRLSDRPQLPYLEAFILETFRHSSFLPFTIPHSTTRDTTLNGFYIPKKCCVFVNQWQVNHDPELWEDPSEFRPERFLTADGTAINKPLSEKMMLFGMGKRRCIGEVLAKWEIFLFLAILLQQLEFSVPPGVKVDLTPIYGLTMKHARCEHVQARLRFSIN

In the next test the target is T2, Streptokinase A (Streptococcus pyogenes serotype M1, UniProt P10520).
T2 sequence (P10520 whole entry): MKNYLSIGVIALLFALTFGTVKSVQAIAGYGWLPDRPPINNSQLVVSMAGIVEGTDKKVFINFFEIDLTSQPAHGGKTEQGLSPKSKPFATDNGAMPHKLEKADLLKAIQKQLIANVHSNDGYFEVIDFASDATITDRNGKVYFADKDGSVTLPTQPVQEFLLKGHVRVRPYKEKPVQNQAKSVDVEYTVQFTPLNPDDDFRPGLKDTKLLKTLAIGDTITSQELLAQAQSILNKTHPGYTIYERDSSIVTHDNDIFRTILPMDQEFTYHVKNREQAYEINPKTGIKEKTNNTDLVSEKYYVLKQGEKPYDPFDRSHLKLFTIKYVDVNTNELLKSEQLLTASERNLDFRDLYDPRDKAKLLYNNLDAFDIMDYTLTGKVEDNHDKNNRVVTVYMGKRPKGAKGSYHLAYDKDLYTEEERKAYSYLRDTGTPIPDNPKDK
In words: S. pyogenes streptokinase expression inhibitors, potency, dose response, plasminogen activation absorbance, OD405 (AID 1914).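 Also: secreted streptokinase activity via plasminogen activation per viability signal from cell pellet.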 The class given is functional, Streptococcus pyogenes M1 GAS.

Another test concerns the target T3, Caspase-6 (Homo sapiens, UniProt P55212).
T3 sequence (P55212 whole entry): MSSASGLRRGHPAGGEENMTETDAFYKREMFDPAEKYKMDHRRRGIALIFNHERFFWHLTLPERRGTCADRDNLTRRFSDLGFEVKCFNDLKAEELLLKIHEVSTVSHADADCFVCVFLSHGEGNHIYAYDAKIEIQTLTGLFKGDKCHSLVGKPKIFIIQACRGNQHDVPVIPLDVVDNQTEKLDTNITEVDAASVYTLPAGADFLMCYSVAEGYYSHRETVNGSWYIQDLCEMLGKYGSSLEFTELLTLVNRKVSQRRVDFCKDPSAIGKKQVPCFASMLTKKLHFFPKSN
Put plainly: human caspase-6 inhibitors, dose response, biochemical, VEID-R110 fluorescence, cherry-pick (AID 720632).

The target in test [1] is Macrophage-stimulating protein receptor (Homo sapiens, UniProt Q04912). Put plainly: Navigating the Kinome. Panel member name: MST1R. The class given is functional.
Test [2] deals with Homeodomain-interacting protein kinase 4 (Homo sapiens, UniProt Q8NE63). The format is functional.
The target in test [3] is Mitogen-activated protein kinase 8 (Homo sapiens, UniProt P45983). The class given is functional.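 Also: value comes from one member of a kinome-wide kinase profiling panel.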
For test [4], the target named is Vascular endothelial growth factor receptor 1 (Homo sapiens, UniProt P17948). The class given is functional.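 Also: measured within a kinome-wide profiling panel, FLT1 as the panel member.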
For test [5], the target named is Tyrosine-protein kinase Fer (Homo sapiens, UniProt P16591). The format is functional.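 Also: FER tested as one member of a kinome panel.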
Test [6] has as its target Tyrosine-protein kinase BTK (Homo sapiens, UniProt Q06187). The format is functional.
Test [7] addresses MAP kinase-activated protein kinase 3 (Homo sapiens, UniProt Q16644). The format is functional.
Test [8] has as its target Serine/threonine-protein kinase Nek4 (Homo sapiens, UniProt P51957). The class given is functional.
Test [9] has as its target Calcium/calmodulin-dependent protein kinase type II subunit alpha (Homo sapiens, UniProt Q9UQM7). Put plainly: Navigating the Kinome. Panel member name: CAMK2A. The format is functional.
In test [10] the target is High affinity nerve growth factor receptor (Homo sapiens, UniProt P04629). The class given is functional.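 Also: NTRK1 tested as one member of a kinome-wide profiling panel.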
The target of test [11] is ALK tyrosine kinase receptor (Homo sapiens, UniProt Q9UM73). The format is functional.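 Also: ALK tested as one member of a kinase panel screen.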
The target in test [12] is Tyrosine-protein kinase Lyn (Homo sapiens, UniProt P07948). The format is functional.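 Also: lyn as one member of a kinase panel.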
Test [13] deals with Serine/threonine-protein kinase D3 (Homo sapiens, UniProt O94806). The class given is functional.
For test [14], the target named is Leukocyte tyrosine kinase receptor (Homo sapiens, UniProt P29376). In words: Navigating the Kinome. Panel member name: LTK. The class given is functional.
Test [15] has as its target Calcium/calmodulin-dependent protein kinase type II subunit gamma (Homo sapiens, UniProt Q13555). The class given is functional.
In test [16] the target is MAP kinase-interacting serine/threonine-protein kinase 2 (Homo sapiens, UniProt Q9HBH9). The class given is functional.
Test [17] deals with Mitogen-activated protein kinase 1 (Homo sapiens, UniProt P28482). The class given is functional.
Test [18] addresses Serine/threonine-protein kinase Chk2 (Homo sapiens, UniProt O96017). The class given is functional.
The target of test [19] is Hepatocyte growth factor receptor (Homo sapiens, UniProt P08581). The class given is functional.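 Also: kinase panel profiling across the kinome, with MET as the panel member.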
For test [20], the target named is Dual specificity tyrosine-phosphorylation-regulated kinase 1B (Homo sapiens, UniProt Q9Y463). In words: Navigating the Kinome. Panel member name: DYRK1B. The class given is functional.
Test [21] concerns the target Dual specificity protein kinase CLK2 (Homo sapiens, UniProt P49760). The format is functional.
The target in test [22] is Calcium/calmodulin-dependent protein kinase type 1 (Homo sapiens, UniProt Q14012). The format is functional.

Sequence of Tyrosine-protein kinase Fer (P16591 whole entry): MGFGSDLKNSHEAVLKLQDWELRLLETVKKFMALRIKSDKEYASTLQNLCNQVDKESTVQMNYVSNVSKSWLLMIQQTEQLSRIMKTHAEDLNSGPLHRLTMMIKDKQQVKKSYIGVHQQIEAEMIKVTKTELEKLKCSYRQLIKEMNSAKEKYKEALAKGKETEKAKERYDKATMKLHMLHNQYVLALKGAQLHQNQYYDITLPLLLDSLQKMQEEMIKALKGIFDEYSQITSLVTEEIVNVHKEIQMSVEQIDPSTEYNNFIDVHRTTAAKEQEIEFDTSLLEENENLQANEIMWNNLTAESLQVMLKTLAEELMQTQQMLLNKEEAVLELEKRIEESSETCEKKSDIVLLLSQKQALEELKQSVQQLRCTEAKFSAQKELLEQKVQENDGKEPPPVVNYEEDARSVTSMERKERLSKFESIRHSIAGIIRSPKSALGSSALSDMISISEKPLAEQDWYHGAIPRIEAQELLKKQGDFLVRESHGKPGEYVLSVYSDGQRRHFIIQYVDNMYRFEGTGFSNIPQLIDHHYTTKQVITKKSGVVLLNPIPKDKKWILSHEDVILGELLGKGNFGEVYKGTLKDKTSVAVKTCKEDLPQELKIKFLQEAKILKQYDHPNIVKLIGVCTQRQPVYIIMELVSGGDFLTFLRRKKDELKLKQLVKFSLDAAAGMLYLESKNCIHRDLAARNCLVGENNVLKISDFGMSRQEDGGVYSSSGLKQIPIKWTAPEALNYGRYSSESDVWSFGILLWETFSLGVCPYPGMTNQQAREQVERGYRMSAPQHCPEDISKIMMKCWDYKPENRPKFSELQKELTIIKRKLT
Sequence of Calcium/calmodulin-dependent protein kinase type II subunit alpha (Q9UQM7 whole entry): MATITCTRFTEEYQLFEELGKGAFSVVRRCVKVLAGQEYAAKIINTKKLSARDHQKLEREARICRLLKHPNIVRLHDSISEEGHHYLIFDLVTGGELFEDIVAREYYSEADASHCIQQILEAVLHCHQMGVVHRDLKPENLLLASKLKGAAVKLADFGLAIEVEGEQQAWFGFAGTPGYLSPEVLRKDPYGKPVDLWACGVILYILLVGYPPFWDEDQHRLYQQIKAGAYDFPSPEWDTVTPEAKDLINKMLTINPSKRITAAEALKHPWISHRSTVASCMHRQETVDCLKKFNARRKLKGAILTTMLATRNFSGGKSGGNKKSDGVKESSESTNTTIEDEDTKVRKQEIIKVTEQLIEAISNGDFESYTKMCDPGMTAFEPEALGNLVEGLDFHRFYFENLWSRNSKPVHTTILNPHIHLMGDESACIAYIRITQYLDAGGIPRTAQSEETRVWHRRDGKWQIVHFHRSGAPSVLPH
Sequence of High affinity nerve growth factor receptor (P04629 whole entry): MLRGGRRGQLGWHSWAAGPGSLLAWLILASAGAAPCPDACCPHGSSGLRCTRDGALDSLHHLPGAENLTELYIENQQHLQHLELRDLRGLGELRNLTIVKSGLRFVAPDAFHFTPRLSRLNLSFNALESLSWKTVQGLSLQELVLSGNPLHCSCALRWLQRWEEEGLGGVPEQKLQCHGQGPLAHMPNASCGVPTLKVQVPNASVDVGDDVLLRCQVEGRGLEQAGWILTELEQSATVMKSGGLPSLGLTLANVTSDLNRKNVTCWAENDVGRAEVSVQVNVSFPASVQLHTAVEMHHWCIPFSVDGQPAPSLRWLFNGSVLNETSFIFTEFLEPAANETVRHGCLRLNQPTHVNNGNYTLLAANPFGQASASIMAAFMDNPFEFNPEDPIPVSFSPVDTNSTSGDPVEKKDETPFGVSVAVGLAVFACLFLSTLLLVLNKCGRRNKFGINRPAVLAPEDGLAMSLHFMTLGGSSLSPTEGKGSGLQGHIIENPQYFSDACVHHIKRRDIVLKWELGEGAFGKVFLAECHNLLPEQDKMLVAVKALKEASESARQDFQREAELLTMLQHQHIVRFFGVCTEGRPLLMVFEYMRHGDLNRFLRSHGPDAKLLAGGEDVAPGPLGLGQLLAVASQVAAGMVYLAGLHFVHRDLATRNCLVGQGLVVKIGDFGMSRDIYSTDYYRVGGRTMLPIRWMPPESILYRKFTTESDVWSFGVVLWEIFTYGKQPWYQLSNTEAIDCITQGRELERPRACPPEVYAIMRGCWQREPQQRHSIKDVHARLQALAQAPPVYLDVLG
Sequence of ALK tyrosine kinase receptor (Q9UM73 whole entry): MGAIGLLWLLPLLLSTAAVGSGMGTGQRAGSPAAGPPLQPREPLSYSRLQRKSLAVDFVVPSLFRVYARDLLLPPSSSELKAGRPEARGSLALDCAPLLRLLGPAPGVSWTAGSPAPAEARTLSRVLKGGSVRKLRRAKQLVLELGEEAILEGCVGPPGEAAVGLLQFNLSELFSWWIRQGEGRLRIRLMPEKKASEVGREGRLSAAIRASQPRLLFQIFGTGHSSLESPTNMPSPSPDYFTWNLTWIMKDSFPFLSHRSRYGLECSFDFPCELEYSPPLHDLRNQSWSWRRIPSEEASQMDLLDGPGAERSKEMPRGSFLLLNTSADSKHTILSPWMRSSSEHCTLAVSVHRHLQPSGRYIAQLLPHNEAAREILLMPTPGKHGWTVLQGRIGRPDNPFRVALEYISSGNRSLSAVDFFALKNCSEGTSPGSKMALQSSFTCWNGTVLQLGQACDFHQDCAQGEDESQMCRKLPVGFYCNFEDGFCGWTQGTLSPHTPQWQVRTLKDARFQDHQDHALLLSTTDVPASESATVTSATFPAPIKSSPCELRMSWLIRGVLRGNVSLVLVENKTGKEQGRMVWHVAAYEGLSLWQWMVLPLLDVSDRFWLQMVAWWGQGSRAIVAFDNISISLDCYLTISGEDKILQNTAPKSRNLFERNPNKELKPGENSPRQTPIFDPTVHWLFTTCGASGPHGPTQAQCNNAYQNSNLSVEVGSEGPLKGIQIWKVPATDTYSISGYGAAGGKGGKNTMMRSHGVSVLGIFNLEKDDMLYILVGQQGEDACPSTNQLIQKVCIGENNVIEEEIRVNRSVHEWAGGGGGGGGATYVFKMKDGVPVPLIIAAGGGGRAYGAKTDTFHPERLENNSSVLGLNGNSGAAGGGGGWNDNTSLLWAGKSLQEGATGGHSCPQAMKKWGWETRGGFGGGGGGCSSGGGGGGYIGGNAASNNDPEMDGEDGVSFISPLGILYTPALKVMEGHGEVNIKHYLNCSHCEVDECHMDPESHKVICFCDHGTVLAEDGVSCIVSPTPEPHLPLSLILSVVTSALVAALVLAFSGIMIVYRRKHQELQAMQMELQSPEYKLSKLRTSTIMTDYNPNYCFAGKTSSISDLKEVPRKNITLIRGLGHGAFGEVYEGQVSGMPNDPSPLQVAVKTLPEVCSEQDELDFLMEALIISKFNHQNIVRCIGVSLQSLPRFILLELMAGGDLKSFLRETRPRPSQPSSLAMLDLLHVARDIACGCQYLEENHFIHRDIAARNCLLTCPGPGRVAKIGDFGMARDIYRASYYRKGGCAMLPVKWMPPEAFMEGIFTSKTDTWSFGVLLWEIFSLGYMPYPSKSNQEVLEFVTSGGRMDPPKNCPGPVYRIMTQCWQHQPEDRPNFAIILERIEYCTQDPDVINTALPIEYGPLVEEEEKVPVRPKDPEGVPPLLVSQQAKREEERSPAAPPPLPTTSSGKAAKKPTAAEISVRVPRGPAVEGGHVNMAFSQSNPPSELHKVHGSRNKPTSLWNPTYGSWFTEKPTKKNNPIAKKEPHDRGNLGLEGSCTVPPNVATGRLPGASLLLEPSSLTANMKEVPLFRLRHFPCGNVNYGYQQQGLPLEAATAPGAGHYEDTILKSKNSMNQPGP
Sequence of Serine/threonine-protein kinase D3 (O94806 whole entry): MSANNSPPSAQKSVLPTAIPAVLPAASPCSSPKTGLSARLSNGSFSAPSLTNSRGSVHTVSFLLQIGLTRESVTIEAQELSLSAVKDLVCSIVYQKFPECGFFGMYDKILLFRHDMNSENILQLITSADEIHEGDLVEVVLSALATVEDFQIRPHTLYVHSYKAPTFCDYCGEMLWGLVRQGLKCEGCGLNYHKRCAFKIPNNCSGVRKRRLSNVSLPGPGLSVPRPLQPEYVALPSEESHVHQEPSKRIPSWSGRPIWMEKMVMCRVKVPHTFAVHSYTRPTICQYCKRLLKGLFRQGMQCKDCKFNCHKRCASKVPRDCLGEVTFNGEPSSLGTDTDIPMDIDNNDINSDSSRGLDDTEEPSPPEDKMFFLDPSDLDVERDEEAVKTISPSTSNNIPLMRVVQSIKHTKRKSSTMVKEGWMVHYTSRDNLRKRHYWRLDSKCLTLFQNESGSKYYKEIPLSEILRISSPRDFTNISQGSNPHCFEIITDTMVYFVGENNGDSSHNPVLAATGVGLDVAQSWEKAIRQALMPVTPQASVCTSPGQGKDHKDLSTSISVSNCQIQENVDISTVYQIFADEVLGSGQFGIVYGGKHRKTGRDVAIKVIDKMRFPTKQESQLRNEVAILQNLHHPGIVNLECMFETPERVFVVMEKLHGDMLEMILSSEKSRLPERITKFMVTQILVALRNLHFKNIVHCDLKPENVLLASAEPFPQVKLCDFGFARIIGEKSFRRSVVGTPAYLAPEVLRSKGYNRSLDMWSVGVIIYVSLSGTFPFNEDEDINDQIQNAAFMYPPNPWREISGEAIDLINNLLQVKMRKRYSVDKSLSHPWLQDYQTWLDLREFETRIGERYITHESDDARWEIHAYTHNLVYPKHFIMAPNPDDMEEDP
Sequence of MAP kinase-activated protein kinase 3 (Q16644 whole entry): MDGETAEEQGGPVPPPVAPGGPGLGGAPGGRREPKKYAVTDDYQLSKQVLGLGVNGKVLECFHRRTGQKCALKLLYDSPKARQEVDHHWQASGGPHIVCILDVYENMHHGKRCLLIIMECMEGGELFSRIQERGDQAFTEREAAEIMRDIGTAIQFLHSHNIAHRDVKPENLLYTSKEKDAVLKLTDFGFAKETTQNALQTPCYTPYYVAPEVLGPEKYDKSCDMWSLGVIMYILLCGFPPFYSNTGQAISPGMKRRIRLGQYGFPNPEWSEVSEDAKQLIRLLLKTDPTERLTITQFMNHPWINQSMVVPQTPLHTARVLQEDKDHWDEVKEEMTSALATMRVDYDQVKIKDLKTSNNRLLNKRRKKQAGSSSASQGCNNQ

In general, AC50 refers to the concentration at which the activity in the assay is half-maximal. In the case of `CCC(C)n1c(NC(=O)c2ccccc2)c(C#N)c2nc3ccccc3nc21` (stereo not given), the AC50 on Cytochrome P450 1A2 was 25100 nM (inconclusive).
What is called EC50 is the concentration needed to bring the measured effect to its halfway point. Read a low EC50 as a more potent agent. Consider `CCCCCCCCCCOC(=O)C[n+]1c(COc2ccc(C)cc2)n(C)c2ccccc21`, for which the EC50 on Streptokinase A is > 150000 nM (not active).
Turning to `CC[C@@H](CO)NC(=O)[C@@H]1C=C2c3cccc4c3c(cn4C)C[C@H]2N(C)C1` [METHYSERGIDE MALEATE], the AC50 at Caspase-6 is 11.5 µM (active) and 11.7 µM (active).
Broadly, the Ki is the dissociation constant of the complex between target and ligand, obtained from inhibition or displacement. With `CN1CCN(c2nc(C3=C(c4c[nH]c5ccccc45)C(=O)NC3=O)c3ccccc3n2)CC1` [SOTRASTAURIN], the Ki was 158 nM (active) in [1]; > 7940 nM (inactive) in test [2]; > 3980 nM (inactive) in test [3]; > 2000 nM (inactive) in test [4]; 316 nM (active) in [5]; > 3980 nM (inactive) in test [6]. Moreover, the Ki in test [7] is > 10000 nM (inactive); in [8], > 6310 nM (inactive); in [9], 3160 nM (active); in test [10] it was > 2510 nM (inactive); in test [11] it was > 1580 nM (inactive); in [12], > 1580 nM (inactive). Also, the Ki in [13] was > 3160 nM (inactive); in test [14], 2510 nM (active); in test [15] it was 79.4 nM (active); in test [16], > 10000 nM (inactive); in test [17], > 7940 nM (inactive); in [18], > 1580 nM (inactive). Also, the Ki in test [19] is > 2510 nM (inactive); in [20] it was > 2510 nM (inactive); in test [21], > 2510 nM (inactive); in test [22] it was > 6310 nM (inactive).
